Measured values: patent publication US9493446B2, “Orexin receptor antagonists which are [ortho bi-(hetero-)aryl]-[2-(meta bi-(hetero-)aryl)-pyrrolidin-1-yl]-methanone derivatives” (Actelion Pharmaceuticals Ltd, priority 2012, dated 2016)
Where two headings read alike, the source gives them in different places.

How the values were obtained:
human orexin-2 receptor = human orexin-2 receptor (Homo sapiens (Human), UniProt O43614); test: Intracellular calcium measurement (FLIPR), CHO cells expressing human orexin-2 receptor, 3 nM orexin-A; type: cell-based; settings: read-out: IC50 OX2
human orexin-2 receptor, sequence (O43614 whole entry): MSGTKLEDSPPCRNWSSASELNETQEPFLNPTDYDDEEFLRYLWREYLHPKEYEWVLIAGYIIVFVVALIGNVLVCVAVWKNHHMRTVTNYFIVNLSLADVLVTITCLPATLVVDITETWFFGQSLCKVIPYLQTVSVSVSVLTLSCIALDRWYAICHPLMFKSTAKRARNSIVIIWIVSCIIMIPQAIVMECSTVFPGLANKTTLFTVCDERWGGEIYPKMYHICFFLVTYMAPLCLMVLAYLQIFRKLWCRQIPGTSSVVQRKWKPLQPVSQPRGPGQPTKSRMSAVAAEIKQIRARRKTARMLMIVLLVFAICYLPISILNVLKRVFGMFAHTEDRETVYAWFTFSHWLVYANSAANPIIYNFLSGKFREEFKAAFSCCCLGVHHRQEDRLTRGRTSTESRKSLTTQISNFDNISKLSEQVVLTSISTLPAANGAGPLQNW
Summary of the method: (§1)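 Antagonist is added 120 min before agonist. Fluo-4 AM-loaded CHO cells carry human orexin-1 or orexin-2 receptor, and calcium is read by FLIPR.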

orexin-1 = orexin-1 (Homo sapiens (Human), UniProt O43613); test: Intracellular calcium measurement (FLIPR), CHO cells expressing human orexin-1 receptor, 3 nM orexin-A; type: cell-based; settings: read-out: IC50 OX1
orexin-1, sequence (O43613 whole entry): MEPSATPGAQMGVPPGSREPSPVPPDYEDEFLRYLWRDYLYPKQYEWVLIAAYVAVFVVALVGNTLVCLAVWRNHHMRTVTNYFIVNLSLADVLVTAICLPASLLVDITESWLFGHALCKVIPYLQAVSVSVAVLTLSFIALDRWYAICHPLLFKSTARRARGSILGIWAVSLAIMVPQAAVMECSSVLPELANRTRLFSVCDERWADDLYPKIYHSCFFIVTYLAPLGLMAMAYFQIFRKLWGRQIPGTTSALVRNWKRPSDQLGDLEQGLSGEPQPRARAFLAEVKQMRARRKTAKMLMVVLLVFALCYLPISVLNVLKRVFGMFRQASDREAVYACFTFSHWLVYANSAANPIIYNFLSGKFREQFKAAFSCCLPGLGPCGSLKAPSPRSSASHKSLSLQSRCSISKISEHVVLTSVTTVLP
Summary of the method: as §1

[1] = CHO cells expressing human orexin-2 receptor, FLIPR, 3 nM orexin-A, geometric mean if determined several times
[2] = CHO cells expressing human orexin-1 receptor, FLIPR, 3 nM orexin-A, geometric mean if determined several times

Compound	IC50 (human orexin-2 receptor; [1])	IC50 (orexin-1; [2])	IC50 (human orexin-2 receptor)	IC50 (orexin-1)
Cc1c(Cl)cccc1-c1noc([C@@H]2CCCN2C(=O)c2cc(F)ccc2-c2ccn[nH]2)n1 [compound 116]	34 nM	457 nM		
{(S)-2-[5-(3-Chloro-2-methyl-phenyl)-[1,2,4]oxadiazol-3-yl]-pyrrolidin-1-yl}-[3-(2-chloro-phenyl)-5-methyl-isoxazol-4-yl]-methanone [Reference compound 8, reference compound]	74 nM	156 nM		
CCOc1ncccc1-c1nnc([C@@H]2CCCN2C(=O)c2cc(Cl)c(C)cc2-n2nccn2)[nH]1 [compound 487, (5-Chloro-4-methyl-2-[1,2,3]triazol-2-yl-phenyl)-{(S)-2-[5-(2-ethoxy-pyridin-3-yl)-4H-[1,2,4]triazol-3-yl]-pyrrolidin-1-yl}-methanone]	8 nM	23 nM		
COc1ccc(-n2cccn2)c(C(=O)N2CCC[C@H]2c2nc(-c3cccc(Cl)c3C)no2)c1 [compound 106]	28 nM	327 nM		
COc1ccc(C)c(-c2nc([C@@H]3CCCN3C(=O)c3ccc(Cl)cc3-n3nccn3)no2)c1 [compound 419]		207 nM	16 nM	
Cc1ccc(C(=O)N2CCC[C@@]2(C)c2nnc(-c3cccc(Cl)c3C)[nH]2)c(-c2ccccc2)c1 [compound 557]	224 nM	292 nM		
CCOc1c(F)cccc1-c1nc([C@@H]2CCCN2C(=O)c2cc(Cl)c(C)cc2-n2nccn2)no1 [compound 366]	3 nM	5 nM		
COc1cc(Cl)cc(-c2nc([C@@H]3CCCN3C(=O)c3cc(C)ccc3-n3nccn3)no2)n1 [compound 316, {(S)-2-[5-(4-Chloro-6-methoxy-pyridin-2-yl)-[1,2,4]oxadiazol-3-yl]-pyrrolidin-1-yl}-(5-methyl-2-[1,2,3]triazol-2-yl-phenyl)-methanone]	19 nM	54 nM		
CCOc1c(F)cccc1-c1nc([C@@H]2CCCN2C(=O)c2cc(OC)ccc2-n2nccn2)no1 [compound 326, {(S)-2-[5-(2-Ethoxy-3-fluoro-phenyl)-[1,2,4]oxadiazol-3-yl]-pyrrolidin-1-yl}-(5-methoxy-2-[1,2,3]triazol-2-yl-phenyl)-methanone]	3 nM	27 nM		
Cc1c(Cl)cccc1-c1noc([C@@H]2CCCN2C(=O)c2ccccc2-n2nccn2)n1 [compound 93]	28 nM	399 nM		
Cc1ccc(C(=O)N2CCC[C@H]2c2cc(-c3ccccc3OC(F)(F)F)n[nH]2)c(-n2nccn2)c1 [compound 533, (4-Methyl-2-[1,2,3]triazol-2-yl-phenyl)-{(S)-2-[5-(2-trifluoromethoxy-phenyl)-2H-pyrazol-3-yl]-pyrrolidin-1-yl}-methanone]	81 nM	258 nM		
Cc1ccc(-n2nccn2)c(C(=O)N2CCC[C@H]2c2cc(-c3cccc(Cl)c3C)on2)c1 [compound 431]	2 nM	19 nM		
Cc1ccc(-n2nccn2)c(C(=O)N2CCC[C@H]2c2nc(-c3ccccc3O)no2)c1 [compound 31, {(S)-2-[3-(2-Hydroxy-phenyl)-[1,2,4]oxadiazol-5-yl]-pyrrolidin-1-yl}-(5-methyl-2-[1,2,3]triazol-2-yl-phenyl)-methanone]	259 nM	2910 nM		
Cc1ccc(-n2nccn2)c(C(=O)N2CCC[C@H]2c2nc(-c3ccccc3Cl)no2)n1 [compound 242]	1440 nM	4360 nM		
COc1ccc(C)c(-c2nc([C@@H]3CCCN3C(=O)c3cc(C)ccc3-n3nccn3)no2)c1 [compound 410, {(S)-2-[5-(5-Methoxy-2-methyl-phenyl)-[1,2,4]oxadiazol-3-yl]-pyrrolidin-1-yl}-(5-methyl-2-[1,2,3]triazol-2-yl-phenyl)-methanone]	14 nM	140 nM		
Cc1ccc(-n2nccn2)c(C(=O)N2CCC[C@H]2c2cc(-c3ccccc3OC(F)(F)F)no2)c1 [compound 425, (5-Methyl-2-[1,2,3]triazol-2-yl-phenyl)-{(S)-2-[3-(2-trifluoromethoxy-phenyl)-isoxazol-5-yl]-pyrrolidin-1-yl}-methanone]	10 nM	4 nM		
COc1c(F)cccc1-c1noc([C@@H]2CCCN2C(=O)c2ccccc2-n2nccn2)n1 [compound 193, {(S)-2-[3-(3-Fluoro-2-methoxy-phenyl)-[1,2,4]oxadiazol-5-yl]-pyrrolidin-1-yl}-(2-[1,2,3]triazol-2-yl-phenyl)-methanone]	25 nM	263 nM		
COc1cc(C(=O)N2CCC[C@H]2c2noc(-c3cccc(Cl)c3C)n2)c(-n2nccn2)cc1Cl [compound 367]	2 nM	20 nM		

Compound	IC50 (human orexin-2 receptor; [1])	IC50 (orexin-1; [2])	IC50 (human orexin-2 receptor)	IC50 (orexin-1)
COc1ccccc1-c1nnc([C@@H]2CCCN2C(=O)c2ccc(Cl)cc2-n2nccn2)[nH]1 [compound 470]		57 nM	31 nM	
CCc1ccccc1-c1nc([C@@H]2CCCN2C(=O)c2cc(C)c(C)cc2-n2nccn2)no1 [compound 401, (4,5-Dimethyl-2-[1,2,3]triazol-2-yl-phenyl)-{(S)-2-[5-(2-ethyl-phenyl)-[1,2,4]oxadiazol-3-yl]-pyrrolidin-1-yl}-methanone]	3 nM	7 nM		
Cc1c(Cl)cccc1-c1noc([C@@H]2CCCN2C(=O)c2cc(F)c(F)cc2-n2nccn2)n1 [compound 110]	159 nM	1690 nM		
CCOc1c(F)cccc1-c1noc([C@@H]2CCCN2C(=O)c2cc(OC)c(Cl)cc2-n2nccn2)n1 [compound 283]	7 nM			34 nM
Cc1ccc(-n2nccn2)c(C(=O)N2CCC[C@H]2c2cc(-c3ccccc3)no2)c1 [Example 420, (5-Methyl-2-[1,2,3]triazol-2-yl-phenyl)-[(S)-2-(3-phenyl-isoxazol-5-yl)-pyrrolidin-1-yl]-methanone]	133 nM	1060 nM		
COc1c(F)cccc1-c1noc([C@@H]2CCCN2C(=O)c2cc(C)ccc2-c2ccccn2)n1 [compound 203, {(S)-2-[3-(3-Fluoro-2-methoxy-phenyl)-[1,2,4]oxadiazol-5-yl]-pyrrolidin-1-yl}-(5-methyl-2-pyridin-2-yl-phenyl)-methanone]	16 nM	56 nM		
O=C(c1ncoc1-c1ccccc1)N1CCC[C@H]1c1nnc(-c2ccccc2OC(F)(F)F)[nH]1 [compound 484, (5-Phenyl-oxazol-4-yl)-{(S)-2-[5-(2-trifluoromethoxy-phenyl)-4H-[1,2,4]triazol-3-yl]-pyrrolidin-1-yl}-methanone]	3000 nM	5020 nM		
Cc1ccc(-n2nccn2)c(C(=O)N2CCC[C@H]2c2nc(-c3cccnc3OC(F)F)no2)c1 [Example 86, {(S)-2-[3-(2-Difluoromethoxy-pyridin-3-yl)-[1,2,4]oxadiazol-5-yl]-pyrrolidin-1-yl}-(5-methyl-2-[1,2,3]triazol-2-yl-phenyl)-methanone]	40 nM	103 nM		
CCOc1ccccc1-c1noc([C@@H]2CCCN2C(=O)c2cc(OC)c(C)cc2-n2nccn2)n1 [compound 258, {(S)-2-[3-(2-Ethoxy-phenyl)-[1,2,4]oxadiazol-5-yl]-pyrrolidin-1-yl}-(5-methoxy-4-methyl-2-[1,2,3]triazol-2-yl-phenyl)-methanone]	4 nM	27 nM		
COc1cc(C(=O)N2CCC[C@H]2c2noc(-c3cccc(C)c3C)n2)c(-n2nccn2)cc1C [compound 403, {(S)-2-[5-(2,3-Dimethyl-phenyl)-[1,2,4]oxadiazol-3-yl]-pyrrolidin-1-yl}-(5-methoxy-4-methyl-2-[1,2,3]triazol-2-yl-phenyl)-methanone]	2 nM	25 nM		
Cc1ccc(C(=O)N2CCC[C@H]2c2nnc(-c3ccccc3OC(F)(F)F)[nH]2)c(-n2nccn2)c1 [compound 501, (4-Methyl-2-[1,2,3]triazol-2-yl-phenyl)-{(S)-2-[5-(2-trifluoromethoxy-phenyl)-4H-[1,2,4]triazol-3-yl]-pyrrolidin-1-yl}-methanone]	4 nM	27 nM		
CCOc1ncccc1-c1nnc([C@@H]2CCCN2C(=O)c2ccc(C)cc2-n2nccn2)[nH]1 [compound 482, {(S)-2-[5-(2-Ethoxy-pyridin-3-yl)-4H-[1,2,4]triazol-3-yl]-pyrrolidin-1-yl}-(4-methyl-2-[1,2,3]triazol-2-yl-phenyl)-methanone]	94 nM	68 nM		
CCc1ccccc1-c1nc([C@@H]2CCCN2C(=O)c2ccc(Cl)cc2-n2nccn2)no1 [compound 398]	18 nM			33 nM
COc1c(F)cccc1-c1nnc([C@@H]2CCCN2C(=O)c2cc(C)ccc2-n2nccn2)o1 [Example 448, {(S)-2-[5-(3-Fluoro-2-methoxy-phenyl)-[1,3,4]oxadiazol-2-yl]-pyrrolidin-1-yl}-(5-methyl-2-[1,2,3]triazol-2-yl-phenyl)-methanone]	236 nM	762 nM		
Cc1ccc(-n2nccn2)c(C(=O)N2CCC[C@H]2c2nc(-c3ccccc3OC(F)(F)F)no2)c1 [compound 17, (5-Methyl-2-[1,2,3]triazol-2-yl-phenyl)-{(S)-2-[3-(2-trifluoromethoxy-phenyl)-[1,2,4]oxadiazol-5-yl]-pyrrolidin-1-yl}-methanone]	5 nM	8 nM		
Cc1cccc(-c2nc([C@@H]3CCCN3C(=O)c3cc(C)ccc3-n3nccn3)no2)c1 [compound 305, (5-Methyl-2-[1,2,3]triazol-2-yl-phenyl)-[(S)-2-(5-m-tolyl-[1,2,4]oxadiazol-3-yl)-pyrrolidin-1-yl]-methanone]	74 nM	164 nM		
COc1ccc(-n2cccn2)c(C(=O)N2CCC[C@H]2c2nc(-c3ccccc3OC(F)(F)F)no2)c1 [compound 157, (5-Methoxy-2-pyrazol-1-yl-phenyl)-{(S)-2-[3-(2-trifluoromethoxy-phenyl)-[1,2,4]oxadiazol-5-yl]-pyrrolidin-1-yl}-methanone]	73 nM	99 nM		
